Assay results reported in patent publication US20250084453A1, “SYSTEMS, COMPOSITIONS AND METHODS FOR IDENTIFYING E3 LIGASE SUBSTRATES BY UBIQUITIN BIOTINYLATION” (The Broad Institute, Inc., priority 2022, published 2025).

Key:
Type in all cases: cell-based, human
GSPT1 [1] = assay: GSPT1 degradation by Western blot in HEK293T cells and CRBN-/- derivatives
Protocol: (§1) However, instead of assessing transiently-expressed V5-tagged IKZF1, an endogenous neo-substrate of CRBN, namely, GSPT1, was assessed. […] Following incubation with the components and added agents, the cells were lysed, and streptavidin-coated beads were used to capture from the cell lysate biotinylated, ubiquitinated proteins, e.g., the endogenous GSPT1 substrate. The biotinylated proteins eluted from the beads were subjected to Western blot analyses.

GSPT1 [2] = assay: Streptavidin pulldown and Western blot of biotinylated ubiquitinated GSPT1 in 293T CRBN-/- CRBN-BirA cells
Protocol: as §1
The cells were either treated or untreated with carfilzomib (0.4 μM) for 1 hour and were either treated or untreated with the CRBN-IMiD modifying agent CC-885 (1 μM) for another hour. […] As discussed above in Example 1, the GSPT1 substrate of BirA-tagged CRBN is expressed endogenously in 293T cells.
The preparation of cellular lysate was as described above for Cell Lysis, except that the RIPA buffer was supplemented with COMPLETE™ EDTA-free protease inhibitor cocktail (Roche; 04693159001; 1 tablet per 10 ml of buffer), benzonase (Millipore; E1014; 1 μl per 10 ml of buffer), 1.5 mM MgCl2, 1 mM EGTA, and 10 mM NEM (N-ethylmaleimide). For each sample, 1 ml of 3 mg/ml lysate was rotated overnight at 4° C. with 50 μl of resuspended streptavidin Sepharose beads (CYTIVA™; 17511301), which were pre-washed with RIPA lysis buffer 3 times. For all steps that required pelleting of beads, centrifugation was performed at 400×g for 1 minute. On the next day, streptavidin beads were pelleted, and the supernatant (a.k.a. flow-through) was either saved for analysis by Western blotting or was discarded. Streptavidin beads were then washed two times with 1 ml of 2% SDS wash buffer (2% SDS, 25 mM Tris-HCl, pH 7.5), and three times with 0.5-1 ml of 2M urea wash buffer (2M urea, 50 mM Tris-HCl, pH 8). Between each wash, the beads were rotated at room temperature for at least 5 minutes. During the last wash, the beads and the washing buffer were transferred to a new microfuge tube. […] For mass spectrometry-based analysis, the procedures described in On-bead Digestion below were used.
On the next day, the cells were transfected using pRK5-Avi-HA-ubiquitin or pRK5-A3-HA-ubiquitin in serum-free DMEM.

CRBN E3 ligase = assay: MS comparison of loss-of-function CRBN-BirA mutants (D249Y, W386A) with WT CRBN-BirA under CC-885; settings: CC-885 1 μM, 1 hour; D249Y and W386A; FIGS. 16A, 16B
Protocol: Experiments were performed to identify substrates of an E3 ligase using CRBN as a representative E3 ligase. The experiments compared loss-of-function mutants of an E3 ligase (e.g., CRBN E3 ligase) to the wildtype (WT) ligase. FIGS. 16A and 16B show the results of a mass spectrometry experiment in which protein substrates susceptible to CC-885 induced ubiquitination were identified. These experiments were performed in HEK293T^CRBN−/− cells transiently expressing A3-HA-Ub and either WT CRBN-BirA or CRBN-BirA mutant D249Y (FIG. 16A) or CRBN-BirA mutant W386A (FIG. 16B). Compared with CRBN(WT), CRBN(D249Y) had decreased association with the CRL4 complex, while CRBN(W386A) had decreased affinity for CC-885. Both mutants were expected to have a diminished ability to ubiquitinate CC-885-induced substrates. While cultured in biotin-free medium, the cells were pre-treated with carfilzomib (carf; 0.4 μM) for 1 hour, and then were treated with the IMiD derivative CC-885 (1 μM) for another hour. […] Enrichment of biotinylated species by streptavidin-coated beads, protein digestion, and protein identification and quantification by mass spectrometry were performed exactly as described in Example 3 and 4. […]

Cc1ccc(NC(=O)NCc2ccc3c(c2)CN(C2CCC(=O)NC2=O)C3=O)cc1Cl (stereo not shown) [CC-885]
GSPT1 degradation (Western blot, FIG. 5A) (GSPT1 [1]; 293T CRBN-/- CRBN-BirA cells with Avi-HA-Ub, 1 μM, 2 hours): degraded
GSPT1 degradation (Western blot) (GSPT1 [1]; 293T CRBN-/- cells expressing BirA-CRBN or CRBN-BirA, 1 μM, 4 hours): degraded
GSPT1 degradation (Western blot) (GSPT1 [1]; 293T CRBN-/- cells, 1 μM, 4 hours): not degraded
GSPT1 degradation (Western blot) (GSPT1 [1]; HEK293T cells, 10 nM, 100 nM, 1 μM or 10 μM for 3.5 hours): degraded in cells in a dose-dependent matter
Specific signal, normalized GSPT1/biotin ratios (GSPT1 [2]; A3-tag compared to Avi-tag, FIG. 6C): increase in specific signal
Sensitivity in detecting CC-885-induced ubiquitination of GSPT1 by CRBN (GSPT1 [2]; A3-tag, FIG. 6C): 36.39
Ubiquitinated GSPT1 captured by streptavidin beads compared with DMSO (GSPT1 [2]; Avi-HA-Ub, 1 μM, 2 hours, Western blot quantification (FIG. 5C)): 6-12 fold
Mono- and poly-ubiquitinated GSPT1 captured by streptavidin beads (GSPT1 [2]; Avi-HA-Ub, FIG. 5C): only observed in conditions where CC-885 was present
Sensitivity in detecting CC-885-induced ubiquitination of GSPT1 by CRBN (GSPT1 [2]; Avi-tag, FIG. 6C): 15.46
Induced ubiquitinated substrates revealed by decreased biotinylation with CRBN-BirA mutants versus WT (CRBN E3 ligase): GSPT1, GSPT2, VCL and CSNK1A1
